Laboratory results published in PMC8517038 (Molecular psychiatry, 2021).
Read-outs that look alike come from different tables or passages of the source.

Tests used:
[1] = target: PCP binding site of the NMDAR (Rattus norvegicus, UniProt P35439); test: Binding and enzyme target profile screen; conditions: 10 μM
mu-opioid receptor (MOR) = mu-opioid receptor (MOR) (Homo sapiens, UniProt P35372); test: Binding and enzyme target profile screen; conditions: 10 μM
KOR [2] = target: T1, KOR (Homo sapiens, UniProt P41145); test: Binding and enzyme target profile screen
T1 sequence (P41145 whole entry): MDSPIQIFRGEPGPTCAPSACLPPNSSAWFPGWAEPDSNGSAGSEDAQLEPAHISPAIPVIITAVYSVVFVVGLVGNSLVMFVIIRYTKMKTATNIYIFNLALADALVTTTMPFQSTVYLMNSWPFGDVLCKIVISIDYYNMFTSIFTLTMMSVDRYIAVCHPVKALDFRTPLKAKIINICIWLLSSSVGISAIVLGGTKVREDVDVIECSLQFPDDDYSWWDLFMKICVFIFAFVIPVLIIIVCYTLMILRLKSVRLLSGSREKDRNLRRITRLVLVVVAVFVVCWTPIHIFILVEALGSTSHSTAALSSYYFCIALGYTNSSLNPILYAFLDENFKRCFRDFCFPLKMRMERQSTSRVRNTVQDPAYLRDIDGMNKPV

Sigma-1 = Sigma-1 (Rattus norvegicus, UniProt Q9R0C9); test: Competitive radioligand binding, [3H]
Chain of Sigma-1 (Q9R0C9 whole entry): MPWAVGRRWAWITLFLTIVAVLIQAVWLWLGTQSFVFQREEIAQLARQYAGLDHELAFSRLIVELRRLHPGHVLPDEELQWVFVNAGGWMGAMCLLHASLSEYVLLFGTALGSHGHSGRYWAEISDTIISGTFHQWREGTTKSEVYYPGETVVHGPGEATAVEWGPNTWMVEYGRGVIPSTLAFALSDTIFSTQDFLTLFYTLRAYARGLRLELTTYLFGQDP

MOR [3] = target: T2, MOR (Homo sapiens, UniProt P35372); test: cAMP accumulation BRET; format: cell-based
T2 sequence (P35372 whole entry): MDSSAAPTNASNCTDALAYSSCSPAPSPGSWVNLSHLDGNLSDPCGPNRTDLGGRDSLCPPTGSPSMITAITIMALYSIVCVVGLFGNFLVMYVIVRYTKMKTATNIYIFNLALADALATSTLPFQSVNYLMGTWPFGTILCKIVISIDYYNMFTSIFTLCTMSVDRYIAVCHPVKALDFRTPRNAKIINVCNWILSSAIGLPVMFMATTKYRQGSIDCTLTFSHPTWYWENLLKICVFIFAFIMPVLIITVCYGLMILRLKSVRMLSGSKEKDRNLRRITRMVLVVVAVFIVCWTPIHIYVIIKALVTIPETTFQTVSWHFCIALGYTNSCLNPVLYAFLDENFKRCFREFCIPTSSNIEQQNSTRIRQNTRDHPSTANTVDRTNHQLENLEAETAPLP

KOR [4] = target: T1, KOR; test: cAMP accumulation BRET; format: cell-based
MOR [5] = target: T2, MOR; test: β-arrestin recruitment BRET in transfected HEK-293 cells; format: cell-based
KOR [6] = target: T1, KOR; test: as above; format: cell-based
dopamine tone [7] = test: [18F]-Fallypride PET; format: in vivo, rat; conditions: 10 mg/kg IV infusion for 40 min
locomotor activity = test: Locomotor activity in mice; format: in vivo; conditions: for acute locomotor activity: male mice, 5, 10 and 20 mg/kg IP every 30 min
locomotor sensitization = test: Locomotor; format: in vivo; conditions: male mice; for locomotor (psychomotor) sensitization over days: 20 mg/kg IP for 3 days
[8] = test system: conditioned place preference; test: Conditioned place preference in mice; format: in vivo; conditions: male mice, 10 mg/kg IP, 6 days pairing
drug self-administration = test: Intravenous self-administration in rats; format: in vivo; conditions: for dose response curve of self-administration: 0.125, 0.25, 0.5, 1.0 mg/kg/infusion, FR1; for extinction of drug self-administration: after retraining on FR1; for self-administration during training: male and female rats, 0.5 mg/kg/infusion, FR1 20-s timeout, 16 sessions
[9] = test system: conditioned place preference; conditions: 40 mg/kg IP, cited from earlier work
[10] = test system: morphine CPP and opioid withdrawal; conditions: mice; cited from earlier work
[11] = test system: methamphetamine-induced locomotion; conditions: 10 mg/kg/day, twice weekly for 8 weeks; cited from earlier work
dopamine tone [12] = conditions: awake monkeys; cited from earlier work
[13] = test system: NMDARs over opioid receptors; conditions: canonical high affinity NMDAR antagonist; no reference given; cited from earlier work

Chain of mu-opioid receptor (MOR) (P35372 whole entry): as above

SMILES	hit (>50% inhibition) at PCP binding site of the NMDAR [1]	hit (>50% inhibition) at MOR (mu-opioid receptor (MOR))	mode of action at MOR, cAMP assay (MOR [3])	mode of action at KOR, cAMP assay (KOR [4])	activation of the β-arrestin pathway, MOR (MOR [5])	activation of the β-arrestin pathway, KOR (KOR [6])	global extracellular dopamine levels in the dorsal striatum ([18F]fallypride) (dopamine tone [7])	acute locomotor activity (locomotor activity)	locomotor activity after 20 mg/kg IP injection (locomotor sensitization)	locomotor (psychomotor) sensitization over days (locomotor sensitization)	conditioned place preference for drug-paired chamber [8]	dose response curve of self-administration (drug self-administration)	extinction of drug self-administration (drug self-administration)	self-administration during training (drug self-administration)	also measured
CN[C@@]1(c2ccccc2Cl)CCCCC1=O [(R)-ketamine]	positive hit	not for (R)-ketamine	weaker partial agonist	weaker partial agonist	Neither (S)- nor (R)-ketamine activated	Neither (S)- nor (R)-ketamine activated	Neither (S)- nor (R)-ketamine significantly changed	increasing it only at the 20 mg/kg dose	increased locomotor activity	but not (R)-ketamine induced psychomotor sensitization	not for the (R)-ketamine-paired chamber	did not show this pattern of responding	rapid extinction of drug seeking	weaker and less reliable	inhibition of KOR binding (KOR [2]; 10 μM): ~ 13%; Ki (Sigma-1; read-out: Ki sigma-1, rat whole brain, [3H](+)pentazocine): 27 ± 3 µM; Emax MOR, cAMP assay (MOR [3]; % morphine maximum response): 39 ± 3%; EC50 (MOR [3]; read-out: EC50 MOR, cAMP assay, HEK-293 transfected with MOR): 34 ± 14 µM; Emax KOR, cAMP assay (KOR [4]; % morphine maximum response): < 50%; EC50 (KOR [4]; read-out: EC50 KOR, cAMP assay, HEK-293 transfected with KOR): > 100 µM; cross-sensitization to (S)-ketamine (locomotor sensitization; repeated 20 mg/kg IP): did not cross-sensitize to (S)-ketamine; CPP in mice ([9]; ref 68): did not produce CPP; CPP in mice ([9]; ref 71): produced CPP in mice; morphine CPP and naloxone-precipitated opioid withdrawal [10]: decreases morphine CPP and naloxone-precipitated opioid withdrawal
CN[C@]1(c2ccccc2Cl)CCCCC1=O [(S)-ketamine]	positive hit	identified as a hit for (S)-ketamine	partial agonist	full agonist	Neither (S)- nor (R)-ketamine activated	Neither (S)- nor (R)-ketamine activated	Neither (S)- nor (R)-ketamine significantly changed	more potent than (R)-ketamine in increasing locomotor activity	increased locomotor activity	showed locomotor sensitization over days	significant preference for the (S)-ketamine-paired chamber	characteristic inverted U-shaped dose response curve	rapid extinction of drug seeking	self-administered (S)-ketamine with a significant escalation of drug intake	inhibition at 10 µM (KOR [2]; read-out: inhibition of KOR binding): ~35%; Ki (Sigma-1): 131 ± 15 µM; EC50 (MOR [3]): 9 ± 2 µM; Emax (MOR [3]; HEK293, read-out: Emax MOR, cAMP assay): 48 ± 3%; EC50 (KOR [4]): 16 ± 4 µM; Emax (KOR [4]; HEK293, read-out: Emax KOR, cAMP assay): 84 ± 5%; average self-administered intake (drug self-administration; dose response test): ~ 15 mg/kg/h; methamphetamine-induced locomotion in mice [11]: led to increased methamphetamine-induced locomotion; [11C]raclopride binding (dopamine tone) (dopamine tone [12]): decreases in [^11C]raclopride binding
C[C@]12N[C@H](Cc3ccccc31)c1ccccc12 [MK-801]	–	–	–	–	–	–	–	–	–	–	–	–	–	–	selectivity for NMDAR over opioid receptors [13]: ~ 1000 fold
O=C1CC[C@@]2(O)[C@H]3Cc4ccc(O)c5c4[C@@]2(CCN3CC2CC2)[C@H]1O5 [naltrexone]	–	–	–	–	–	–	–	–	–	–	–	–	–	–	effect on (S)-ketamine-induced locomotor activity (locomotor activity; naltrexone 10 mg/kg IP pretreatment, male mice): partially blocked
